Data from patent US5428048A, “Aryl-N-hydroxyureas as inhibitors of 5-lipoxygenase and anto-arteriosclerotic agents” (American Home Products Corporation, priority 1993, dated 1995).

Tests used:
Low Density Lipoprotein = assay: Inhibition of Copper Ion Mediated Oxidation of Low Density Lipoprotein; assay type: biochemical; conditions: Cu+2 mediated oxidation of rabbit or monkey LDL, 37° C., 90 minutes, 532 nm
Procedure: 5. Inhibition of Copper Ion Mediated Oxidation of Low Density Lipoprotein
In this in vitro assay, the inhibition of Cu^+2 mediated oxidation of rabbit or monkey LDL by an invention compound is determined spectrophotometricallly. Oxidation of LDL results in the formation of LDL-diene which absorbs light at 532 nm. Inhibition of oxidation of LDL leads to a decrease in absorbance at 532 nm.
Rabbit or monkey LDL is prepared according to the procedures of Havel, Eder and Gragdon, "The Distribution and Chemical Composition of Ultracentrifugally Separated Lipoproteins in Human Serum,: J. Clin. Invest. 34, 1345-1353 (1955) and Parhtasarathy, Wieland and Steriberg, "A Role for Endothelial Cell Lipoxygenase in the Oxidative Modification of Low Density Lipoprotein," Proc. Natl. Acad. Sci. USA 86, 1046-1050 (1989). Test compound solutions are prepared by dissolving the invention compounds in ethanol at concentrations up to 248 μM. The medium used is Dulbecco's phosphate buffered saline containing 0.5 mg/ml bovine serum albumin. For standards, 0 to 10 μl of an aqueous solution of 1,1,3,3-tetraethoxypropane (1 μmol/ml H2 O) in 4.1 ml of medium is used.
Test compound solution ([…]) is added to 4 ml of medium in incubation tubes. To each tube is added 10 μl of LDL solution and 25 μl of aqueous copper sulfate solution (1.32 mg/ml H2 O). The tubes are incubated at 37° C. for 90 minutes and the oxidation reaction quenched by addition of 1 ml of thiobarbituric acid solution (0.67% in 50% acetic acid). The tubes are heated at 90° C. for 1 hour, then chilled in an ice bath and the chromophore extracted into 2 ml of n-butanol. Absorbence is read at 532 nm and the results are reported as nmols of malondialdehyde equivalents.
Significant differences (p<0.05) are determined by the Dunnett T-test or by the Student-Newman-Keuls Test for significant differences between means. The assay is conducted using several concentrations [I] of the inhibitor test compounds. The LDL solution concentrations at different experiments were either 1.5 mg/ml, 2.5 mg/ml or 10.3 mg/ml. The IC50 is determined by non-linear regression, plotting log [I] vs. % inhibition. (Reference: K. Yagi, Biochemical Medicine 15,212-216 (1976)).

[1] = system: LT-dependent bronchoconstriction; assay: Inhibition of Bronchoconstriction in Guinea Pigs Induced by Exogenously Administered Antigen; assay type: in vivo, Male guinea pigs
Procedure: 4. Inhibition of Brochoconstriction in Guinea Pigs Induced by Exogenously Administered Antigen
Male guinea pigs (Charles River, Wilmington, Mass.) were sensitized 3-4 weeks prior to antigen challenge by administration of 2 i.m. injections of ovalbumin, 1 into each hind limb (35 mg total). Sensitized animals (500-600 g) were fasted overnight prior to experimentation. Conscious animals were then dosed p.o. with drug or vehicle alone (0.5% Tween 80 in H2 O) at the indicated times prior to antigen challenge, or anesthetized animals were dosed i.v. with drug or vehicle alone (DMSO) 5 min prior to antigen challenge. Animals were anesthetized by urethane (2.8 g/kg i.p.). A carotid artery and jugular vein were cannulated to allow for the monitoring of blood pressure and the administration of drugs, respectively. The trachea was then cannulated and connected to a Harvard Apparatus rodent ventilator (S. Natick, Mass.). Spontaneous respiration was abolished by the administration of succinylcholine (2.5 mg/kg i.v.). The animals were then ventilated with room air at a rate of 65 breaths per min. Airway inflation pressure was measured using a Statham pressure transducer (Gould Instruments, Cleveland, Ohio) connected to the tracheal cannula via a side-arm and recorded on a Grass Instruments recorder (Quincy, Mass.). The tidal volume (approximately 10 cc/kg) was adjusted to give a baseline inflation pressure of 8-10 cm H2 O at end inspiration. Animals were then allowed 20 min to stabilize.
Following the stabilization period, animals were given i.v. injections of pyrilamine (5 mg/kg), propranolol (0.1 mg/kg) and indomethacin (10 mg/kg) at 15, 10 and 5 min, respectively, prior to antigen challenge. This pretreatment results in an LT-dependent bronchoconstriction following antigert challenge, which was accomplished by i.v. administration of ovalbumin (10 mg/kg). Only one bronchoconstriction per animal was induced. End-inspiratory inflation pressure (in cm H2 O over baseline) was measured at 5 min post-antigen challenge. A mean value and standard error for the % inhibition of control bronchoconstriction in each drug-treated group was then calculated.

Lipoxygenase = assay: Ex-Vivo Measurement of Lipoxygenase Inhibition in Orally Dosed Rats (LTB4 in A23187-stimulated blood); parameters: species or system Male Sprague Dawley rats; conditions: ex vivo rat, p.o.
Procedure: 2. […] After an interval of 3 or 6 hours, the rats were anesthetized with metofane (n =4/group) and blood collected in heparinized tubes. White blood cell counts and differentials were made. One ml of blood from each animal was placed in a 5 ml plastic tube in a shaker bath at 37° C. A23187 at a final concentration of 10 μM was added to the blood and the blood vortexed and incubated for 15 min at 37° C. with gentle shaking. Incubation was terminated by vortexing sample and centrifuging immediately at 1200 xG for 15 min at 4° C. The plasma was transferred to 15 ml plastic tubes each containing 8 ml of methanol to precipitate protein followed by vortexing. The samples were stored at -70° C. overnight and the next day the samples were centrifuged at 800 xG for 15 min to pellet the precipitate. The samples were dried in a Savant SpeedVac Concentrator Model SVC 200H and reconstituted to the original volume with cold RIA or ELISA buffer. The reconstituted samples were stored at -70° C. until assayed. The assay for LTB4 was perforated according to the directions of the [^3 H]RIA kit or ELISA kit (Seragen). The total metabolite level in 1 ml of blood is calculated and reported as ng/10^6 neutrophils. Significance is determined by a one-way analysis of variance with LSD comparisons to control (p<0.05).

[2] = dose 25 (mg/kg), pretreatment 3 hr

IC50 (Low Density Lipoprotein) | SMILES | Bronchoconstriction % Inhibition ([1]; 20 mg/kg i.v.) | Bronchoconstriction % Inhibition ([1]; 25 mg/kg aerosol) | Bronchoconstriction % Inhibition ([1]; 25 mg/kg p.o.) | % Inhibition of LTB4 (Lipoxygenase; [2]) | % Inhibition of LTB4 (Lipoxygenase; dose 1 (mg/kg), pretreatment 6 hr) | Bronchoconstriction % Inhibition ([1]; 10 mg/kg i.v.) | Bronchoconstriction % Inhibition ([1]; 10 mg/kg p.o.) | % Inhibition of LTB4 (Lipoxygenase; dose 5 (mg/kg), pretreatment 6 hr)
690 nM | Cc1oc(-c2ccccc2)nc1CCOc1ccc(CN(O)C(N)=O)cc1 [Example 1] | 66% | 67% | 25% | 79% | – | – | – | –
820 nM | Cc1oc(-c2ccc(C(F)(F)F)cc2)nc1CCOc1ccc(CN(O)C(N)=O)cc1 [Example 13, 1-Hydroxy-1-[4-[2-[5-methyl-2(4-trifluoromethyl-phenyl)-oxazol-4-yl]-ethoxy]benzyl]-urea] | 23% | – | – | – | 50% | – | – | –
1300 nM | Cc1oc(-c2ccccc2)nc1CCOc1ccc(C(C)N(O)C(N)=O)cc1 (centres unmarked) [Example 4] | – | 51% | – | 57% | – | – | – | –
– | NC(=O)N(O)Cc1ccc(OCCc2noc(-c3ccccc3)n2)cc1 [Example 21, 1-hydroxy-1-[4-[2-(5-phenyl-[1,2,4]-oxadiazol-3-yl)-ethoxy]-benzyl]-urea] | – | – | – | – | – | 58% | 34% | 60%
